Assay results taken from patent US8377903B2, “Cladribine regimen for treating multiple sclerosis” (Merck Serono SA, priority 2004, dated 2013).

Assays:
[1] = test system: patients with multiple sclerosis; conditions: with the highest doses; i.v. or s.c.; cited from earlier work
[2] = test system: patients with Chronic Progressive MS and Relapsing-Remitting MS; conditions: Phase II; 0.1 mg/kg/day i.v. 7 days x 4 months or 0.07 mg/kg/day s.c. 5 days x 6 months; cited from earlier work
[3] = test system: patients with relapsing forms of clinically definite multiple sclerosis; assay: Oral Cladribine in the treatment of relapsing forms of MS (Example 1 protocol); assay type: in vivo, human
Text: The efficacy and safety of oral Cladribine administration, eventually multi-dose administration, according to the invention can be assessed for example following the protocol below:
A study of sixty patients with relapsing forms of clinically definite multiple sclerosis is undertaken. Each patient is first examined for normal hepatic, renal, and bone marrow functioning to establish baseline values.
Patients are selected from Male or Female, between 18 and 55 years of age who had one or more relapses within the prior 12 months. Female patients are non-pregnant female.
Each of the patients in Groups 2 and 3 receives 3 mg or 10 mg 2-CdA (1, 2 or 3 administration(s) a day depending on the patient's weight) combined in cyclodextrin formulation as described in WO 2004/087101, Example 3. The Compositions of the Cladribine formulations in 3 mg or 10 mg 2-CdA tablets containing hydroxypropyl-beta-cyclodextrin are listed in Table 2 below:
In Group 1 patients receive a placebo (saline) for 4 months followed by 8 months of no treatment.
Patients are monitored to determine whether there is any progression or improvement of brain lesions associated with progression of MS through MRI scans and neurological examination as described in Miller et al., 1996, above; Evans et al., 1997, above; Sipe et al., 1984, above; and Mattson, 2002, above. All patients have a baseline and MRI study (brain or spinal cord, according to localization of the lesions) at month 12.
The patient's disability progression and the time for having a first relapse are monitored as well as the proportion of relapse-fee patients at 24 months.
Lymphocyte markers and monocyte counts are monitored in the patients.

[4] = test system: patients with remitting-relapsing multiple sclerosis; conditions: 6 monthly courses of 5 days, total dose about 4-5.7 mg/kg, cited from earlier work
[5] = test system: patients with primary progressive (PP) or secondary progressive (SP) multiple sclerosis; conditions: Phase III; 0.07 mg/kg/day s.c., repeated for 2 or 6 months; cited from earlier work
[6] = oral, succession of an induction treatment and maintenance treatments

Nc1nc(Cl)nc2c1ncn2[C@H]1C[C@H](O)[C@@H](CO)O1 [Cladribine, 2-chloro-2′ deoxyadenosine]
adverse effects (AEs) [1]: increased incidence of infections related to compromised immune function or myelosuppression
effects on EDSS, SNRS scores and MRI findings [2]: positive effects
brain lesions (MRI scans) ([3]; Groups 2 and 3: oral 2-CdA total dose 1.75 mg/kg or 3.5 mg/kg): decrease in brain lesions
adverse effects [3, 6]: no severe adverse effect is observed
efficacy of regimen on brain lesions [3, 6]: efficient in decreasing brain lesions
therapeutic efficacy of oral regimen versus i.v. infusion therapy [4]: questioned
side effects versus i.v. infusion study ([4]; oral): less severe
MRI-measured brain lesions [5]: positive on the significant reduction of MRI-measured brain lesions
